Data as given in PubChem BioAssay AID1259407 (Chemical Carcinogenesis Research Information System (CCRIS), 2018).
Activity calls are given as the source filed them. The rule behind the calls is not given here.

System: CCRIS mutagenicity, Ames/micronucleus/aberration tests
Test: CCRIS mutagenicity studies
[1] = Test System: AMES SALMONELLA TYPHIMURIUM, Strain/Indicator: TA98, Metabolic Activation: NONE, Method: STANDARD PLATE
[2] = Test System: AMES SALMONELLA TYPHIMURIUM, Strain/Indicator: TA100, Metabolic Activation: NONE, Method: STANDARD PLATE
[3] = Test System: AMES SALMONELLA TYPHIMURIUM, Strain/Indicator: TA98, Metabolic Activation: RAT, LIVER, S-9, AROCLOR 1254, Method: STANDARD PLATE
[4] = Test System: AMES SALMONELLA TYPHIMURIUM, Strain/Indicator: TA100, Metabolic Activation: RAT, LIVER, S-9, AROCLOR 1254, Method: STANDARD PLATE
[5] = Test System: AMES SALMONELLA TYPHIMURIUM, Strain/Indicator: TA98, Metabolic Activation: NONE, Method: PREINCUBATION
[6] = Test System: AMES SALMONELLA TYPHIMURIUM, Strain/Indicator: TA1535, Metabolic Activation: NONE, Method: PREINCUBATION
[7] = Test System: AMES SALMONELLA TYPHIMURIUM, Strain/Indicator: TA1537, Metabolic Activation: NONE, Method: PREINCUBATION

SMILES: O=c1oc2ccccc2c(O)c1C1CCCc2ccccc21 (stereo not drawn)
- mutagenic call (Test System: AMES SALMONELLA TYPHIMURIUM, Strain/Indicator: TA97, Metabolic Activation: NONE): inactive; negative
- mutagenic call (Test System: AMES SALMONELLA TYPHIMURIUM, Strain/Indicator: TA97, Metabolic Activation: S-9): inactive; negative
- mutagenic call (Test System: AMES SALMONELLA TYPHIMURIUM, Strain/Indicator: TA98, Metabolic Activation: NONE): inactive; negative
- mutagenic call (Test System: AMES SALMONELLA TYPHIMURIUM, Strain/Indicator: TA98, Metabolic Activation: S-9): inactive; negative
- mutagenic call (Test System: AMES SALMONELLA TYPHIMURIUM, Strain/Indicator: TA100, Metabolic Activation: NONE): inactive; negative
- mutagenic call (Test System: AMES SALMONELLA TYPHIMURIUM, Strain/Indicator: TA100, Metabolic Activation: S-9): inactive; negative
- mutagenic call (Test System: AMES SALMONELLA TYPHIMURIUM, Strain/Indicator: TA102, Metabolic Activation: NONE): inactive; negative
- mutagenic call (Test System: AMES SALMONELLA TYPHIMURIUM, Strain/Indicator: TA102, Metabolic Activation: S-9): inactive; negative

SMILES: O=[N+]([O-])C1=Cc2cccc3cccc(c23)O1
- mutagenic call [1]: inactive; negative
- mutagenic call (Test System: AMES SALMONELLA TYPHIMURIUM, Strain/Indicator: TA98, Metabolic Activation: S-9, Method: STANDARD PLATE): inactive; negative
- mutagenic call [2]: active; positive
- mutagenic call (Test System: AMES SALMONELLA TYPHIMURIUM, Strain/Indicator: TA100, Metabolic Activation: S-9, Method: STANDARD PLATE): inactive; negative

SMILES: C=CCc1ccccc1OCC(O)CNC(C)C (stereo not drawn)
- mutagenic call [1]: inactive; negative
- mutagenic call [3]: inactive; negative
- mutagenic call [2]: inactive; negative
- mutagenic call [4]: inactive; negative

SMILES: Oc1ccc(-c2ccccc2)cc1
- mutagenic call [3]: active; positive
- mutagenic call (Test System: AMES SALMONELLA TYPHIMURIUM, Strain/Indicator: TA1535, Metabolic Activation: RAT, LIVER, S-9, AROCLOR 1254, Method: STANDARD PLATE): inactive; negative

SMILES: CC(C)Br
- mutagenic call (End Point: In vitro micronucleus, Test System: Chinese Hamster Ovary (CHO-WBL) cells, Metabolic Activation: None): inactive; negative
- mutagenic call [5]: inactive; negative
- mutagenic call (Test System: AMES SALMONELLA TYPHIMURIUM, Strain/Indicator: TA98, Metabolic Activation: RAT LIVER S-9, PHENOBARBITAL AND BETA-NAPHTHOFLAVONE, Method: PREINCUBATION): inactive; negative
- mutagenic call (Test System: AMES SALMONELLA TYPHIMURIUM, Strain/Indicator: TA98, Metabolic Activation: RAT, LIVER, S-9, PHENOBARBITAL AND 5,6-BENZOFLAVONE, Method: PREINCUBATION): inactive; negative
- mutagenic call (Test System: AMES SALMONELLA TYPHIMURIUM, Strain/Indicator: TA100, Metabolic Activation: RAT, LIVER, S-9, PHENOBARBITAL AND 5,6-BENZOFLAVONE, Method: PREINCUBATION): active; positive
- mutagenic call [6]: active; positive
- mutagenic call (Test System: AMES SALMONELLA TYPHIMURIUM, Strain/Indicator: TA1535, Metabolic Activation: RAT LIVER S-9, PHENOBARBITAL AND BETA-NAPHTHOFLAVONE, Method: PREINCUBATION): active; positive
- mutagenic call (Test System: AMES SALMONELLA TYPHIMURIUM, Strain/Indicator: TA1535, Metabolic Activation: RAT, LIVER, S-9, PHENOBARBITAL AND 5,6-BENZOFLAVONE, Method: PREINCUBATION): active; positive
- mutagenic call [7]: inactive; negative
- mutagenic call (Test System: AMES SALMONELLA TYPHIMURIUM, Strain/Indicator: TA1537, Metabolic Activation: RAT LIVER S-9, PHENOBARBITAL AND BETA-NAPHTHOFLAVONE, Method: PREINCUBATION): inactive; negative
- mutagenic call (Test System: AMES SALMONELLA TYPHIMURIUM, Strain/Indicator: TA1537, Metabolic Activation: RAT, LIVER, S-9, PHENOBARBITAL AND 5,6-BENZOFLAVONE, Method: PREINCUBATION): inactive; negative
- mutagenic call (Test System: E. COLI, Strain/Indicator: WP2 UVRA, Metabolic Activation: NONE, Method: PREINCUBATION): inactive; negative
- mutagenic call (Test System: E. COLI, Strain/Indicator: WP2 UVRA, Metabolic Activation: RAT, LIVER, S-9, PHENOBARBITAL AND 5,6-BENZOFLAVONE, Method: PREINCUBATION): inactive; negative

SMILES: C[C@H]1COc2c(N3CCN(C)CC3)c(F)cc3c(=O)c(C(=O)O)cn1c23
- mutagenic call [5]: inactive; negative
- mutagenic call (Test System: AMES SALMONELLA TYPHIMURIUM, Strain/Indicator: TA98, Metabolic Activation: RAT, LIVER, S-9, PHENOBARBITAL AND BETA-NAPHTHOFLAVONE, Method: PREINCUBATION): inactive; negative
- mutagenic call (Test System: AMES SALMONELLA TYPHIMURIUM, Strain/Indicator: TA100, Metabolic Activation: NONE, Method: PREINCUBATION): inactive; negative
- mutagenic call (Test System: AMES SALMONELLA TYPHIMURIUM, Strain/Indicator: TA100, Metabolic Activation: RAT, LIVER, S-9, PHENOBARBITAL AND BETA-NAPHTHOFLAVONE, Method: PREINCUBATION): inactive; negative
- mutagenic call [6]: inactive; negative
- mutagenic call (Test System: AMES SALMONELLA TYPHIMURIUM, Strain/Indicator: TA1535, Metabolic Activation: RAT, LIVER, S-9, PHENOBARBITAL AND BETA-NAPHTHOFLAVONE, Method: PREINCUBATION): inactive; negative
- mutagenic call [7]: inactive; negative
- mutagenic call (Test System: AMES SALMONELLA TYPHIMURIUM, Strain/Indicator: TA1537, Metabolic Activation: RAT, LIVER, S-9, PHENOBARBITAL AND BETA-NAPHTHOFLAVONE, Method: PREINCUBATION): inactive; negative
- mutagenic call (Test System: CHINESE HAMSTER OVARY, Strain/Indicator: CHO-K1 (HGPRT)/6-THIOGUANINE, Metabolic Activation: NONE): inactive; negative
- mutagenic call (Test System: CHINESE HAMSTER OVARY, Strain/Indicator: CHO-K1 (HGPRT)/6-THIOGUANINE, Metabolic Activation: RAT, LIVER, S-9, PHENOBARBITAL AND BETA-NAPHTHOFLAVONE): inactive; negative
- mutagenic call (Test System: E.COLI, Strain/Indicator: WP2 UVRA, Metabolic Activation: NONE, Method: PREINCUBATION): inactive; negative
- mutagenic call (Test System: E.COLI, Strain/Indicator: WP2 UVRA, Metabolic Activation: RAT, LIVER, S-9, PHENOBARBITAL AND BETA-NAPHTHOFLAVONE, Method: PREINCUBATION): inactive; negative
- mutagenic call (Test System: UDS RAT HEPATOCYTES, Strain/Indicator: THY INCORP, Metabolic Activation: NONE, Method: IN VIVO-IN VITRO): inactive; negative

SMILES: COc1cc2c(c3oc(=O)c4c(c13)[C@@H](O)CC4=O)[C@@H]1C=CO[C@@H]1O2
- mutagenic call (Test System: AMES SALMONELLA TYPHIMURIUM, Strain/Indicator: TA98, Metabolic Activation: HUMAN, LIVER, S-9, Method: STANDARD PLATE): inactive; negative
- mutagenic call (Test System: AMES SALMONELLA TYPHIMURIUM, Strain/Indicator: TA100, Metabolic Activation: HUMAN, LIVER, S-9, Method: STANDARD PLATE): inactive; negative
- mutagenic call [2]: active; positive
- mutagenic call [4]: active; positive

SMILES: N#Cc1cc(I)c(O)c([N+](=O)[O-])c1
- mutagenic call (End Point: In vivo chromosomal aberrations, Test System: Bone marrow cells, Species: Mouse, Strain/Sex: Swiss/Male, Route: Intraperitoneal): active; positive (structural changes)
- mutagenic call [1]: inactive; negative
- mutagenic call (Test System: AMES SALMONELLA TYPHIMURIUM, Strain/Indicator: TA98, Metabolic Activation: RAT, LIVER, S-9, KANECHLOR 400, Method: STANDARD PLATE): inactive; negative
- mutagenic call [2]: inactive; negative
- mutagenic call (Test System: AMES SALMONELLA TYPHIMURIUM, Strain/Indicator: TA100, Metabolic Activation: RAT, LIVER, S-9, KANECHLOR 400, Method: STANDARD PLATE): inactive; negative
- mutagenic call (Test System: AMES SALMONELLA TYPHIMURIUM, Strain/Indicator: TA1535, Metabolic Activation: NONE, Method: STANDARD PLATE): inactive; negative
- mutagenic call (Test System: AMES SALMONELLA TYPHIMURIUM, Strain/Indicator: TA1535, Metabolic Activation: RAT, LIVER, S-9, KANECHLOR 400, Method: STANDARD PLATE): inactive; negative
- mutagenic call (Test System: AMES SALMONELLA TYPHIMURIUM, Strain/Indicator: TA1537, Metabolic Activation: NONE, Method: STANDARD PLATE): inactive; negative
- mutagenic call (Test System: AMES SALMONELLA TYPHIMURIUM, Strain/Indicator: TA1537, Metabolic Activation: RAT, LIVER, S-9, KANECHLOR 400, Method: STANDARD PLATE): inactive; negative
- mutagenic call (Test System: AMES SALMONELLA TYPHIMURIUM, Strain/Indicator: TA1538, Metabolic Activation: RAT, LIVER, S-9, KANECHLOR 400, Method: STANDARD PLATE): inactive; negative
